One may read the melting point as the temperature of the solid-liquid transition. What is called pIC50 is −log10 of the IC50, conventionally taken in molar units.

pIC50: −log10 of the molar value. Where only a bound is given, the exact number is not on record here.

For data set [1], the target named is T1, first bromodomain (BrD1) of human BRD4 (Homo sapiens, UniProt O60885).
T1 construct: the first bromodomain (BrD1) of human BRD4; poly-His (cleaved yes); made in house
Kind of data set: Fluorescence anisotropy binding assay (competition with FITC-labeled MS417 probe). To be noted: FITC-MS417 probe 80 nM, PBS pH 7.4, 1 hour, 25° C., read-out: BRD4_1 IC50. In a few lines: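 BRD4 BrD1 (His tag removed by thrombin) at 0.25 to 1 μM competed against 80 nM FITC-labeled MS417 in PBS pH 7.4. Anisotropy read after 1 hour at 25° C. Ki derived from fitted IC50 by Nikolovska-Coleska-corrected Cheng-Prusoff equation, one-site competitive model.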
In general terms: In fluorescence polarisation assays a small probe gives low polarisation when free and higher when bound to something large.

Data set [2] has as its target T2, BRD4_2 (Homo sapiens, UniProt O60885).
T2 construct: contains two tandem bromodomains (BrD1 and BrD2)
Kind of data set: Fluorescence anisotropy binding assay (competition with FITC-labeled MS417 probe), BRD4_2. To be noted: FITC-MS417 probe 80 nM, PBS pH 7.4, 1 hour, 25° C.

Consider `CC1=C(Nc2cccc(Br)c2)CCC1=O`, for which the melting point lay within 291 to 294 °C.

On to `COc1c(NC2=C(C)C(=O)CC2)cccc1C(=O)O`, for which the melting point lay within 220 to 223 °C.

As for `CC1=C(Nc2cc(Cl)c(C(=O)O)cc2Cl)CCC1=O`, the melting point is 229 to 232 °C.

`CC1=C(Nc2cc(C(=O)O)ccc2C(F)(F)F)CCCC1=O` came in with a melting point of 209 to 212 °C.

Regarding `CC1=C(NC2(C(F)(F)F)C=CC(C(=O)O)=CC2)CCCC1=O` (centres unmarked), the melting point fell in the range of 229 to 231 °C.

Molecule `CC1=C(Nc2ccc(S(N)(=O)=O)cc2)CCC1=O` (hydrate or solvate) [Example 01-06, 4-((2-methyl-3-oxocyclopent-1-en-1-yl)amino)benzenesulfonamide] gave a melting point of 245 to 247 °C.

The molecule `CC1=C(Nc2ccc(C#N)cc2)CCC1=O` (hydrate or solvate) [Example 01-07, 4-((2-methyl-3-oxocyclopent-1-en-1-yl)amino)benzonitrile] came in with a melting point of 204 to 206 °C.

The molecule `CC1=C(Nc2ccc(S(=O)(=O)Nc3ccccn3)cc2)CCC1=O` (hydrate or solvate) [Example 01-31, 4-((2-methyl-3-oxocyclopent-1-en-1-yl)amino)-N-(pyridin-2-yl)benzenesulfonamide] returned a melting point of 230 to 233 °C.

In turn, `CC1=C(NC2CCN(C(=O)OC(C)(C)C)CC2)CCC1=O` (hydrate or solvate) [Example 01-32, tert-Butyl 4-((2-methyl-3-oxocyclopent-1-en-1-yl)amino)piperidine-1-carboxylate] had a melting point of 189 to 191 °C.

Consider `CC1=C(N[C@H]2CC[C@H](C(=O)O)CC2)CCC1=O` (hydrate or solvate) [Example 01-33, trans-(1R,4R)-4-((2-methyl-3-oxocyclopent-1-en-1-yl)amino)cyclo6hexane-carboxylic acid], for which the melting point was 236 to 238 °C.

`CC1=C(N[C@H]2CC[C@@H](C(=O)O)CC2)CCC1=O` (hydrate or solvate) [Example 01-34, cis-(1S,4S)-4-((2-methyl-3-oxocyclopent-1-en-1-yl)amino)cyclohexanecarboxylic acid]: the melting point lay within 233 to 235 °C.

In turn, `CC1=C(Nc2cccc(S(N)(=O)=O)c2)CCC1=O` (hydrate or solvate) [Example 01-45, 3((2-methyl-3-oxocyclopent-1-en-1-yl)amino)benzenesulfonamide] showed a melting point of 223 to 225 °C.

As to `COc1ccc(NC(=O)c2ccc(Cl)c(NC3=C(C#N)C(=O)CCC3)c2)cc1` [Example 05-35, 4-chloro-3-((2-cyano-3-oxocyclohex-1-en-1-yl)amino)-N-(4-methoxyphenyl)benzamide], the pIC50 in data set [1] and in data set [2] was < 5.00 each time.

As to `COc1ccc(NC(=O)c2ccc(Cl)c(NC3=C(C#N)C(=O)CCC3)c2)c(C)c1` [Example 05-36, 4-chloro-3-((2-cyano-3-oxocyclohex-1-en-1-yl)amino)-N-(4-methoxy-2-methylphenyl)benzamide], the pIC50 in data set [1] and in data set [2] was < 5.00 throughout.

`CC1=C(Nc2cccc(NC(=O)c3ccccc3C)c2Cl)CCCC1=O` [Example 05-50, N-(2-chloro-3-((2-methyl-3-oxocyclohex-1-en-1-yl)amino)phenyl)-2-methylbenzamide]: the pIC50 is 5.00 to 6.00 in data set [1] and < 5.00 in data set [2].

As for `CC1=C(Nc2cc(NS(=O)(=O)c3ccccc3Cl)ccc2Cl)CCC1=O` [Example 05-56, N-(4-chloro-3-((2-methyl-3-oxocyclopent-1-en-1-yl)amino)-phenyl)-2-chlorobenzenesulfonamide], the pIC50 in data set [1] and in data set [2] was > 6.00 in each case.

`CC1=C(Nc2cccc(NS(=O)(=O)C3CCCCC3)c2Cl)CCCC1=O` [Example 05-71, N-(2-chloro-3-((2-methyl-3-oxocyclohex-1-en-1-yl)amino)phenyl)-cyclohexanesulfonamide]: the pIC50 in data set [1] is > 6.00; in data set [2], 5.00 to 6.00.

`CC1=C(Nc2cccc(Nc3ccccc3C)c2Cl)CCCC1=O` [Example 05-80, 3-((2-chloro-3-(o-tolylamino)phenyl)amino)-2-methylcyclohex-2-enone]: the pIC50 in data set [1] was > 6.00; in data set [2], 5.00 to 6.00.

As for `CC1=C(Nc2cccc(NC(=O)/C=C\C(=O)O)c2Cl)CCCC1=O` [Example 05-85, (Z)-4-((2-chloro-3-((2-methyl-3-oxocyclohex-1-en-1-yl)amino)phenyl)-amino)-4-oxobut-2-enoic acid], the pIC50 in data set [1] is > 6.00; in data set [2], < 5.00.

As to `CC1=C(Nc2cccc(-c3cn(Cc4ccccc4C)nn3)c2)CCC1=O` [Example 06-10, 2-methyl-3-((3-(1-(2-methylbenzyl)-1H-1,2,3-triazol-4-yl)phenyl)amino)cyclopent-2-enone], the pIC50 in data set [1] is > 6.00; in data set [2] it was 5.00 to 6.00.

Consider `COc1ccc(Cn2cc(-c3cccc(NC4=C(C)C(=O)CC4)c3)nn2)cc1` [Example 06-15, 3-((3-(1-(4-methoxybenzyl)-1H-1,2,3-triazol-4-yl)phenyl)amino)-2-methylcyclopent-2-enone], for which the negative logarithm of the IC50 (pIC50) in data set [1] was > 6.00; in data set [2] it was 5.00 to 6.00.

Regarding `CC1=C(Nc2ccc(-c3cn(Cc4ccccc4)nn3)cc2)CCC1=O` [Example 06-28], the pIC50 was > 6.00 in data set [1] and 5.00 to 6.00 in data set [2].

Regarding `CC1=C(Nc2ccc(C(=O)O)cc2)CCC1=O` [Examples 02-1], the pIC50 is 5.00 to 6.00 in data set [1] and < 5.00 in data set [2].

As for `CC1=C(Nc2ccc(C(=O)O)cc2Cl)CCC1=O` [Examples 02-2], the pIC50 in data set [1] and in data set [2] was 5.00 to 6.00 in each case.

For `COc1cc(NC2=C(C)C(=O)CC2)ccc1C(=O)O` [Examples 02-3], the pIC50 in data set [1] and in data set [2] was < 5.00 each time.

For `CC1=C(Nc2ccccc2C(=O)O)CCC1=O` [Examples 02-4], the pIC50 in data set [1] and in data set [2] was < 5.00 each time.

Regarding `CC1=C(Nc2ccc(Cl)cc2C(=O)O)CCC1=O` [Examples 02-5], the pIC50 in data set [1] and in data set [2] was < 5.00 in each case.

Turning to `CC1=C(Nc2ccc(C(=O)O)cc2F)CCC1=O` [Examples 02-6], the pIC50 in data set [1] was 5.00 to 6.00; in data set [2], < 5.00.

As for `CC1=C(Nc2ccc(C(=O)O)cc2Br)CCC1=O` [Examples 02-7], the pIC50 in data set [1] is 5.00 to 6.00; in data set [2], < 5.00.

With `CC1=C(Nc2ccc(C(=O)O)cc2I)CCC1=O` [Examples 02-8], the pIC50 in data set [1] and in data set [2] was 5.00 to 6.00 in each case.

`COC(=O)c1ccc(Br)c(NC2=C(C)C(=O)CCC2)c1` [Examples 02-9]: the pIC50 in data set [1] and in data set [2] was < 5.00 in each case.

With `C#Cc1cccc(NC2=C(C)C(=O)CC2)c1` [Examples 06-1], the values for the pIC50 in data set [1] and in data set [2] were 5.00 to 6.00 and < 5.00, respectively.

As for `CC1=C(Nc2cccc(-c3cn(-c4ccccc4)nn3)c2)CCC1=O` [Examples 06-2, 2-methyl-3-((3-(1-phenyl-1H-1,2,3-triazol-4-yl)phenyl)amino)cyclopent-2-enone], the pIC50 in data set [1] and in data set [2] was 5.00 to 6.00 each time.

In the case of `CC1=C(Nc2cccc(-c3cn(Cc4ccccc4F)nn3)c2)CCC1=O` [Examples 06-8], the pIC50 was > 6.00 in data set [1] and 5.00 to 6.00 in data set [2].

These data come from patent publication US9884806B2, “Cyclic vinylogous amides as bromodomain inhibitors” (ICAHN SCHOOL OF MEDICINE AT MOUNT SINAI, priority 2013, dated 2018).
